Results published in US6492344B1, “Syndecan enhancer element and syndecan stimulation of cellular differentiation” (Biotie Therapies Corp., priority 1993, dated 2002).

Legend:
Format in all cases: cell-based, mouse
[1] = tested on: nuclear factors binding FiRE motifs 1-5
Experimental: The Enhancer Comprises Five DNA Binding Motifs. Plasmid pFiRE was end-labeled using Klenow fragment and […]. DNAse I footprinting was performed with labeled pFiRE vector alone (naked), together with FGF-induced nuclear extracts (FGF-2), and together with non-induced nuclear extracts (control). To obtain nuclear extracts, NIH3T3 cells were plated on 16 cm dishes and treated with or without FGF-2 for 1 day. Nuclear proteins were extracted using a modification described by Lee et al., Gene Anal. Techn. 5:22-31 (1988). Protein concentrations were measured by the Bradford method.
In a 12 μl reaction, 5 μg of the nuclear extracts were incubated with labeled oligonucleotide, 2 μg of poly-d[I-C] and 2×reaction buffer, i.e., […], pH 7.5; 100 mM NaCl; 2 mM EDTA; and 10% glycerol for 15 minutes at room temperature. Non-labeled competitor oligonucleotides were used at 100-fold molar excess. The complexes were analyzed by electrophoresis in a 4.5% polyacrylamide gel. For supershifts, 0.1 μg of specific antibody was added to the reaction 15 minutes before the labeled oligonucleotide. […]
These motifs was further analyzed by competing the binding of nuclear factors with a molar excess of specific (s) and non-specific (ns) oligonucleotides. […] The resulting complexes were analyzed by the gel retardation analysis described above. […]

syndecan-1 gene = assay: Nuclear run-off of syndecan-1 transcription in 3T3NIH cells
Experimental: The same cells were exposed to 10 ng/ml of FGF-2 for 4 hours and 24 hours with or without exposure to FGF (Control) followed by the isolation of nuclei for the run-off experiment. c-jun or nur transcription was used as a positive control and β-actin as a loading control. In nuclei isolated 4 hours after FGF exposure the level of transcription of the syndecan-1 gene was elevated as were the levels for c-jun and nur as positive controls.

[2] = tested on: FGF-inducible Response Element (FiRE); assay: pFiRE CAT reporter in syndecan-1 transfected 3T3 cells (3T3 1.5); details: 3T3 1.5 cells expressing high levels of syndecan-1, versus wild type 3T3
Description: The Enhancer is Not Functional in 3T3 Cells Expressing High Levels of Syndecan-1. Syndecan-1 transfected 3T3 cells (3T3 1.5) and wild type 3T3 cells were transiently transfected with the pFiRE construct, treated with FGF or a negative control, and analyzed for reporter gene (CAT) expression. The results are depicted in FIG. 16. The closed columns indicate relative CAT activity in control cells (without FGF treatment) while the labeled columns depict relative CAT activity in FGF-treated cells.

## FGF-2: Basic fibroblast growth factor (FGF-2 or bFGF); recombinant human
[1]
  nuclear protein binding to motifs 1 and 2: do not show binding to an FGF-2 inducible factor
  nuclear protein binding to motifs 3, 4 and 5: bind at least one specific FGF-2 inducible nuclear protein
syndecan-1 gene; after 24 hours of 10 ng/ml FGF-2
  transcription of syndecan-1 (run-off): not detectable
syndecan-1 gene; nuclei isolated 4 hours after 10 ng/ml FGF exposure
  level of transcription of the syndecan-1 gene (run-off): elevated
[2]
  activation of CAT expression from pFiRE: significantly reduced
